According to patent US11865108B2, “Nitrogen containing bicyclic compounds” (Wockhardt Limited, priority 2019, dated 2024):
Converted amounts (≈) assume the structure as drawn.

Columns and labels:
[1] = tested on: K. pneumoniae NCTC 13439; assay: MIC alone and in combination, K. pneumoniae NCTC 13439; format: cell-based; conditions: Klebsiella pneumoniae, NCTC13439, 18 h, beta lactamase VIM-1, alone or in combination as labelled
Experimental: (§1) The biological activity of representative compounds according to the invention against various bacterial strains was investigated. In a typical study, overnight grown bacterial cultures were diluted appropriately and inoculated on the agar media containing doubling dilutions of the test compounds. Observations for growth or no growth was performed after 16-20 hours of incubation at 35±2° C. in the ambient air. The overall procedure was performed as per Clinical and Laboratory Standards Institute (CLSI) recommendations, (Clinical and Laboratory Standards Institute (CLSI), Performance Standards for Antimicrobial Susceptibility Testing, 20th Informational Supplement, M07-A9, Volume 32, No. 2, 2012). Molten Mueller Hinton Agar (MHA) (BD, USA) containing serial dilutions of each antibacterial agent were poured on to the plates and allowed to solidify. Appropriate suspensions from the freshly grown cultures were prepared in normal saline so that about 10^4 CFU/spot of the organism was delivered on to the drug containing agar plates using automated multipoint inoculator (Mast, UK). The plates were incubated in Biochemical oxygen demand (BOD) incubator at 37° C. for 18 hours and then examined for growth. […] The Table 2 depicts the antibacterial activity profile of compounds according to present invention against various multidrug resistant bacterial strains.
(§2) The antibacterial activity of compounds according to the invention was also investigated in combination with several antibacterial agents. For example, antibacterial activity of the representative compounds of Formula (I) (Example 1 and Example 2) in combination with Ceftazidime and Cefixime are summarized in Table 3.

[2] = tested on: K. pneumoniae B 88; assay: MIC alone and in combination, K. pneumoniae B 88; format: cell-based; conditions: Klebsiella pneumoniae, B88, 18 h, beta lactamase NDM, ESBL, alone or in combination as labelled
Experimental: as §1, §2

[3] = tested on: K. pneumoniae NCTC 13443; assay: MIC alone and in combination, K. pneumoniae NCTC 13443; format: cell-based; conditions: Klebsiella pneumoniae, NCTC13443, 18 h, beta lactamase NDM, ESBL, alone or in combination as labelled
Experimental: as §1, §2

[4] = tested on: K. pneumoniae S 465; assay: MIC alone and in combination, K. pneumoniae S 465; format: cell-based; conditions: Klebsiella pneumoniae, S465, 18 h, beta lactamase OXA-181, ESBL, alone or in combination as labelled
Experimental: as §1, §2

[5] = tested on: K. pneumoniae B 77; assay: MIC alone and in combination, K. pneumoniae B 77; format: cell-based; conditions: Klebsiella pneumoniae, B77, 18 h, beta lactamase NDM, ESBL, alone or in combination as labelled
Experimental: as §1, §2

[6] = tested on: Multi Drug Resistant (MDR) Gram negative strains; assay: Antibacterial activity alone and in combination, summary of Table 3; format: cell-based, K. pneumoniae; conditions: for antibacterial activity when used alone: strains of Table 3; for antibacterial effect in combination: in combination with Ceftazidime and Cefixime, highly resistant bacterial strains
Experimental: as §1, §2

[7] = tested on: K. pneumoniae H 523; assay: Agar dilution MIC, K. pneumoniae H 523; format: cell-based; conditions: Klebsiella pneumoniae, H523
Experimental: as §1

[8] = tested on: K. pneumoniae H 522; assay: Agar dilution MIC, K. pneumoniae H 522; format: cell-based; conditions: Klebsiella pneumoniae, H522
Experimental: as §1

[9] = tested on: E. Coli 7 MP; assay: Agar dilution MIC, E. Coli 7 MP; format: cell-based; conditions: Escherichia coli
Experimental: as §1

[10] = tested on: E. Coli M 36; assay: Agar dilution MIC, E. Coli M 36; format: cell-based; conditions: Escherichia coli
Experimental: as §1

[11] = tested on: KP ATCC 700603; assay: Agar dilution MIC, KP ATCC 700603; format: cell-based, K. pneumoniae; conditions: Klebsiella pneumoniae, ATCC700603
Experimental: as §1

[12] = tested on: E. Coli 13351; assay: Agar dilution MIC, E. Coli 13351; format: cell-based; conditions: Escherichia coli
Experimental: as §1

[13] = tested on: E. Coli M 50; assay: Agar dilution MIC, E. Coli M 50; format: cell-based; conditions: Escherichia coli
Experimental: as §1

[14] = tested on: E. Coli 13352; assay: Agar dilution MIC, E. Coli 13352; format: cell-based; conditions: Escherichia coli
Experimental: as §1

[15] = tested on: K. pneumoniae H 521; assay: Agar dilution MIC, K. pneumoniae H 521; format: cell-based; conditions: Klebsiella pneumoniae, H521
Experimental: as §1

[16] = tested on: E. Coli M 49; assay: Agar dilution MIC, E. Coli M 49; format: cell-based; conditions: Escherichia coli
Experimental: as §1

[17] = tested on: E. Coli 13353; assay: Agar dilution MIC, E. Coli 13353; format: cell-based; conditions: Escherichia coli
Experimental: as §1

[18] = tested on: E. Coli S 18; assay: Agar dilution MIC, E. Coli S 18; format: cell-based; conditions: Escherichia coli
Experimental: as §1

[19] = tested on: K. pneumoniae H 525; assay: Agar dilution MIC, K. pneumoniae H 525; format: cell-based; conditions: Klebsiella pneumoniae, H525
Experimental: as §1

[20] = tested on: E. Coli M 138; assay: Agar dilution MIC, E. Coli M 138; format: cell-based; conditions: Escherichia coli
Experimental: as §1

SMILES	MIC [1] [µg/mL]	MIC [2] [µg/mL]	MIC [3] [µg/mL]	MIC [4] [µg/mL]	MIC [5] [µg/mL]	antibacterial activity when used alone [6]	MIC [7] [µg/mL]	MIC [8] [µg/mL]	MIC [9] [µg/mL]	MIC [10] [µg/mL]	MIC [11] [µg/mL]	MIC [12] [µg/mL]	MIC [13] [µg/mL]	MIC [14] [µg/mL]	MIC [15] [µg/mL]	MIC [16] [µg/mL]	MIC [17] [µg/mL]	MIC [18] [µg/mL]	MIC [19] [µg/mL]	MIC [20] [µg/mL]	also measured
C=CC1=C(C(=O)O)N2C(=O)[C@@H](NC(=O)/C(=N\OCC(=O)O)c3csc(N)n3)[C@H]2SC1 [Cefixime, reference compound]	> 32	> 32	> 32	> 32	> 32	–	–	–	–	–	–	–	–	–	–	–	–	–	–	–	–
CC(C)(O/N=C(\C(=O)N[C@@H]1C(=O)N2C(C(=O)[O-])=C(C[n+]3ccccc3)CS[C@H]12)c1csc(N)n1)C(=O)O [Ceftazidime, reference compound]	> 32	> 32	> 32	> 32	> 32	did not exhibit significant antibacterial activity	–	–	–	–	–	–	–	–	–	–	–	–	–	–	–
C[C@H]1CN[C@H](CONC(=O)[C@@H]2CC[C@@H]3CN2C(=O)N3OS(=O)(=O)O)C1 [Example 1, (2S,5R)—N-{[(2S,4R)-4-methylpyrrolidin-2-yl]methyloxy}-7-oxo-6-(sulfooxy)-1,6-diazabicyclo[3.2.1]octane-2-carboxamide]	> 32	> 32	> 32	> 32	> 32	did not exhibit significant antibacterial activity	0.5 (≈ 1.32 µM)	1 (≈ 2.64 µM)	1 (≈ 2.64 µM)	0.5 (≈ 1.32 µM)	> 32	1 (≈ 2.64 µM)	0.5 (≈ 1.32 µM)	1 (≈ 2.64 µM)	1 (≈ 2.64 µM)	4 (≈ 10.6 µM)	0.5 (≈ 1.32 µM)	1 (≈ 2.64 µM)	0.5 (≈ 1.32 µM)	0.5 (≈ 1.32 µM)	melting point: 172 to 174 °C (dec.); antibacterial effect in combination [6]: unusual and unexpected synergistic antibacterial effect
C[C@@H]1CN[C@H](CONC(=O)[C@@H]2CC[C@@H]3CN2C(=O)N3OS(=O)(=O)O)C1 [Example 2, (2S,5R)—N-{[(2S,4S)-4-Methyl-pyrrolidin-2-yl]methyloxy}-7-oxo-6-(sulfooxy)-1,6-diazabicyclo[3.2.1]octane-2-carboxamide]	> 32	> 32	> 32	> 32	> 32	did not exhibit significant antibacterial activity	1 (≈ 2.64 µM)	1 (≈ 2.64 µM)	2 (≈ 5.29 µM)	0.5 (≈ 1.32 µM)	> 32	1 (≈ 2.64 µM)	1 (≈ 2.64 µM)	1 (≈ 2.64 µM)	2 (≈ 5.29 µM)	4 (≈ 10.6 µM)	0.5 (≈ 1.32 µM)	1 (≈ 2.64 µM)	1 (≈ 2.64 µM)	1 (≈ 2.64 µM)	antibacterial effect in combination [6]: unusual and unexpected synergistic antibacterial effect
C[C@@H]1CN[C@@H](CONC(=O)[C@@H]2CC[C@@H]3CN2C(=O)N3OS(=O)(=O)O)C1 [Example 3, (2S,5R)—N-{[(2R,4S)-4-Methyl-pyrrolidin-2-yl]methyloxy}-7-oxo-6-(sulfooxy)-1,6-diazabicyclo[3.2.1]octane-2-carboxamide]	–	–	–	–	–	–	0.5 (≈ 1.32 µM)	1 (≈ 2.64 µM)	2 (≈ 5.29 µM)	0.5 (≈ 1.32 µM)	> 32	1 (≈ 2.64 µM)	0.5 (≈ 1.32 µM)	1 (≈ 2.64 µM)	1 (≈ 2.64 µM)	4 (≈ 10.6 µM)	0.5 (≈ 1.32 µM)	1 (≈ 2.64 µM)	0.5 (≈ 1.32 µM)	0.5 (≈ 1.32 µM)	–
C[C@H]1CN[C@@H](CONC(=O)[C@@H]2CC[C@@H]3CN2C(=O)N3OS(=O)(=O)O)C1 [Example 4, (2S,5R)—N-{[(2R,4R)-4-Methyl-pyrrolidin-2-yl]methyloxy}-7-oxo-6-(sulfooxy)-1,6-diazabicyclo[3.2.1]octane-2-carboxamide]	–	–	–	–	–	–	2 (≈ 5.29 µM)	2 (≈ 5.29 µM)	2 (≈ 5.29 µM)	0.5 (≈ 1.32 µM)	> 32	1 (≈ 2.64 µM)	1 (≈ 2.64 µM)	2 (≈ 5.29 µM)	2 (≈ 5.29 µM)	4 (≈ 10.6 µM)	1 (≈ 2.64 µM)	1 (≈ 2.64 µM)	2 (≈ 5.29 µM)	1 (≈ 2.64 µM)	–
